Source: ChEMBL document CHEMBL2073910, “Molecular cloning and functional characterization of the mouse organic-anion-transporting polypeptide 1 (Oatp1) and mapping of the gene to chromosome X” (Biochem J, 2000)

What was measured:
[1] = target: T1, Solute carrier organic anion transporter family member 1A1 (Mus musculus, UniProt Q9QXZ6); test: (§1) TP_TRANSPORTER: uptake in Xenopus laevis oocytes; type: functional, cell-based; details: oocyte
T1 sequence (Q9QXZ6 whole entry): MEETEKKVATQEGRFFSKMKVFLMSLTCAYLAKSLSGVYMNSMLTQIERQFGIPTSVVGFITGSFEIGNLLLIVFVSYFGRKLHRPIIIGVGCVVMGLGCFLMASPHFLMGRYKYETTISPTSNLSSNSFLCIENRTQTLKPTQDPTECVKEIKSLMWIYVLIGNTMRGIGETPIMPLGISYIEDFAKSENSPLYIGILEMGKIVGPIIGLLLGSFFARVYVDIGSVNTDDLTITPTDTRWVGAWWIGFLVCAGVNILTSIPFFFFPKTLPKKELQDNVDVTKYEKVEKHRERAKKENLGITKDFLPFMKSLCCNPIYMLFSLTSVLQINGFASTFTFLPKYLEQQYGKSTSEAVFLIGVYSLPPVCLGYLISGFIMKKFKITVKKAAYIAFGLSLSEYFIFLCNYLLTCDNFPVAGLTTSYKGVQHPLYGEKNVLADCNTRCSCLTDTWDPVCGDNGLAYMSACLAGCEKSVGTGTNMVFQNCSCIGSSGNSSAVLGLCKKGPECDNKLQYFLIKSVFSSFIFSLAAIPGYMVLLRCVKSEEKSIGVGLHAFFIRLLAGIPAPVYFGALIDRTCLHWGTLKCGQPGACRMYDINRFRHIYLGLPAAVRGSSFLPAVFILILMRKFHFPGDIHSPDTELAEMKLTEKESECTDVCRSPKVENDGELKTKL

[2] = substrate: C[C@]12CC[C@@H]3c4ccc(OS(=O)(=O)O)cc4CC[C@H]3[C@@H]1CCC2=O; test: as §1; type: functional, cell-based, Oocyte

C[C@@H]1O[C@@H](O[C@H]2C[C@@H](O)[C@]3(CO)[C@H]4[C@H](O)C[C@]5(C)[C@@H](C6=CC(=O)OC6)CC[C@]5(O)[C@@H]4CC[C@]3(O)C2)[C@H](O)[C@H](O)[C@H]1O [OUABAIN]
Activity [1]: substrate [+]

O=C1OC(c2ccc(O)c(S(=O)(=O)[O-])c2)(c2ccc(O)c(S(=O)(=O)[O-])c2)c2c(Br)c(Br)c(Br)c(Br)c21.[Na+].[Na+] [SULFOBROMOPHTHALEIN SODIUM]
Activity [1]: substrate [+]

GADOXETATE
Activity [1]: substrate [+]

B1: Solute carrier organic anion transporter family member 1A1 (Mus musculus) (protein)
chain: T1 sequence (Q9QXZ6 whole entry)
Km [2]: 5 µM
